Laboratory results reported in ChEMBL document CHEMBL5523739, “NN1213 - A Potent, Long-Acting, and Selective Analog of Human Amylin” (J Med Chem, 2024).
≈ marks a conversion by molar mass, not a printed value. Calls of active or inactive are those of the source. No cut-off for these calls is given here.

What was measured:
Calcitonin receptor [1] = biological target: T1, Calcitonin receptor (Homo sapiens, UniProt P30988); test: Displacement of 125I-Calcitonin from human CTR expressed in Baby hamster kidney cell membrane incubated for 120 mins by SPA method; format: cell membranes
T1 sequence (P30988 whole entry): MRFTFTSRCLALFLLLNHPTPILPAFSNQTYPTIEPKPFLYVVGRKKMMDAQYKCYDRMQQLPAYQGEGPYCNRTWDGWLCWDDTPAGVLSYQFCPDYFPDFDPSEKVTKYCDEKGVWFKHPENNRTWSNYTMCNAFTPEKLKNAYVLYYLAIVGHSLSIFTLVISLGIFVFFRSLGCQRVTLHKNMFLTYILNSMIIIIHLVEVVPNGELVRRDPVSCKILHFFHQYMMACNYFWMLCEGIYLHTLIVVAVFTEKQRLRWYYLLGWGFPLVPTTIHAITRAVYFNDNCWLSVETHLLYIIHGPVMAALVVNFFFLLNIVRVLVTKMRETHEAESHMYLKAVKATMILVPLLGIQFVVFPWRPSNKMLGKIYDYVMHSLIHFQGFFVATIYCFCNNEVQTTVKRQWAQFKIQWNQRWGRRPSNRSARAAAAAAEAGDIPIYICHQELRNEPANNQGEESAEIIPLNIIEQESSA

Canis familiaris = test: Appetite suppressing activity in dog assessed as reduction in food intake at 3 nmol/kg, sc measured for 48 hrs; format: functional, organism-based; settings: Canis lupus familiaris
Rattus norvegicus [2] = test: Appetite suppressing activity in HFD-fed DIO rat model assessed as reduction in body weight at 2.2 to 22 nmol/kg, sc qd measured for 21 days relative to control; format: functional; parameters: scale not given: the % may be the effect or the level left; settings: dose 2.2-22 nmol/kg, time 21 day
Rattus norvegicus [3] = test: Appetite suppressing activity in rat assessed as reduction in food intake administered subcutaneously measured for 48 hrs; format: functional, organism-based; settings: dose 3-100 nmol/kg, route sc
Rattus norvegicus [4] = test: Appetite suppressing activity in HFD-fed DIO rat model assessed as reduction in body weight administered subcutaneously once daily measured after 21 days; format: functional, organism-based; settings: dose 0.7-22 nmol/kg, route sc, time 21.0 day
Rattus norvegicus [5] = test: Appetite suppressing activity in HFD-fed DIO rat model assessed as body weight lost at 22 nmol/kg, sc qd measured after 21 days; format: functional; settings: time 21 day
Calcitonin receptor [6] = biological target: T2, Calcitonin receptor (Rattus norvegicus, UniProt P32214); test: Displacement of 125I-Calcitonin from rat CTR expressed in Baby hamster kidney cell membrane incubated for 120 mins by SPA method; format: cell membranes
T2 sequence (P32214 whole entry): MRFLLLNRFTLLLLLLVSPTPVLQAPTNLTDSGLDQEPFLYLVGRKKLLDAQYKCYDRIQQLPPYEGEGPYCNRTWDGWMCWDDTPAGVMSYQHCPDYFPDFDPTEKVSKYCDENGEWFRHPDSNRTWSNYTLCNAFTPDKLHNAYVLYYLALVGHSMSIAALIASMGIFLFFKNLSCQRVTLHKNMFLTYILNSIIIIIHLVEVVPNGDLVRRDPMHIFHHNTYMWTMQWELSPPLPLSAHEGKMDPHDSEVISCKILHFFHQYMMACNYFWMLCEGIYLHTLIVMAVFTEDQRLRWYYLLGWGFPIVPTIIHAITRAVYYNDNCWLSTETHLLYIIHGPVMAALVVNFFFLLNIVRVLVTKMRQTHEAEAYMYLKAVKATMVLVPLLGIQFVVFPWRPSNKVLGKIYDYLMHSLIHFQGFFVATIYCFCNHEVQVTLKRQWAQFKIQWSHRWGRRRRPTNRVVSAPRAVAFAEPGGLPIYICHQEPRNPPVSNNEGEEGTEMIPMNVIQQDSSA

Rattus norvegicus [7] = test: Appetite suppressing activity in rat assessed as reduction in food intake at 100 nmol/kg, sc measured for 48 hrs relative to control; format: functional; parameters: scale not given: the % may be the effect or the level left
Rattus norvegicus [8] = test: Appetite suppressing activity in HFD-fed DIO rat model assessed as reduction in body weight at 0.7 to 22 nmol/kg, sc qd measured after 15 days; format: functional, organism-based; settings: dose 0.7-22 nmol/kg, time 15.0 day
Rattus norvegicus [9] = test: Appetite suppressing activity in HFD-fed DIO rat model assessed as reduction in food intake at 0.7 to 22 nmol/kg, sc qd measured after 15 days; format: functional, organism-based; settings: dose 0.7-22 nmol/kg, time 15.0 day
[10] = Solubility of compound at pH 4 incubated overnight by UPLC analysis; format: physicochemical; settings: buffer
Calcitonin receptor [11] = biological target: T1, Calcitonin receptor; test: Agonist activity at human CTR expressed in Baby hamster kidney cells incubated for 3 hrs followed by medium replacement without compound measured after 30 mins by luciferase reporter assay; format: functional, cell-based, Baby hamster kidney cell
[12] = Solubility of compound at pH 6 incubated overnight by UPLC analysis; format: physicochemical; settings: buffer
Rattus norvegicus [13] = test: Appetite suppressing activity in HFD-fed DIO rat model assessed as reduction in fat mass administered subcutaneously once daily measured after 21 days; format: functional, organism-based; settings: dose 0.7-22 nmol/kg, route sc, time 21.0 day
[14] = Solubility of compound at pH 3 incubated overnight by UPLC analysis; format: physicochemical; settings: buffer
[15] = biological target: T3, Amylin receptor AMY3; CALCR/RAMP3 (Rattus norvegicus, UniProt P32214+Q9JJ73); test: Agonist activity at rat AMY3R complex of CTR/RAMP3 expressed in Baby hamster kidney cells incubated for 3 hrs by cAMP assay; format: functional, cell-based, Baby hamster kidney cell
T3 sequence (P32214 whole entry): T2 sequence (P32214 whole entry)
T3 sequence (Q9JJ73 whole entry): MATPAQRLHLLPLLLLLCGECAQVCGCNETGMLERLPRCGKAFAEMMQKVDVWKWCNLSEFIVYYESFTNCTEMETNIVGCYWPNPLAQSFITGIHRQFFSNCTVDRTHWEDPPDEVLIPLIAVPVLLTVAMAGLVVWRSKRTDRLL

[16] = biological target: Amylin receptor AMY2; CALCR/RAMP2 (Homo sapiens, UniProt O60895+P30988); test: Agonist activity at human AMY2R complex of CTR/RAMP2 transduced in human HeLa cells by cAMP assay; format: functional, cell-based
[17] = Solubility of compound at pH 7.5 incubated overnight by UPLC analysis; format: physicochemical; settings: buffer
[18] = Solubility of compound at pH 7 incubated overnight by UPLC analysis; format: physicochemical; settings: buffer
[19] = biological target: Calcitonin-gene-related peptide receptor, CALCRL/RAMP1 (Homo sapiens, UniProt O60894+Q16602); test: Agonist activity at human CGRPR complex of CRLR/RAMP1 transduced in human HeLa cells by cAMP assay; format: functional, cell-based
[20] = Terminal half life in Beagle dog at 6 nmol/kg, iv; format: ADME, Canis lupus familiaris; settings: in vivo, read-out: beta t1/2 (converted)
Rattus norvegicus [21] = test: Appetite suppressing activity in rat assessed as reduction in food intake at 3 nmol/kg, sc measured after 24 hrs relative to control; format: functional; parameters: scale not given: the % may be the effect or the level left
[22] = Terminal half life in rat at 2.5 nmol/kg, sc; format: ADME; settings: in vivo, read-out: beta t1/2 (converted)
[23] = biological target: Amylin receptor AMY1, CALCR/RAMP1 (Homo sapiens, UniProt O60894+P30988); test: Agonist activity at human AMY1R complex of CTR/RAMP1 transduced in human HeLa cells by cAMP assay; format: functional, cell-based
[24] = Stability against amyloid fibril formation at pH 7.5 assessed as lag time at 1 uM measured after 45 hrs by ThT assay; format: physicochemical; settings: pH 7.5, 45 h

Sequence of Calcitonin-gene-related peptide receptor, CALCRL/RAMP1 (O60894 whole entry): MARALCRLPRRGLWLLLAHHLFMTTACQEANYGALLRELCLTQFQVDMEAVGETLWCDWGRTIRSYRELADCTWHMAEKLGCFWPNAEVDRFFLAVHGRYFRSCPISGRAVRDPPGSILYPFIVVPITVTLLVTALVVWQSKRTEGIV
Sequence of Calcitonin-gene-related peptide receptor, CALCRL/RAMP1 (Q16602 whole entry): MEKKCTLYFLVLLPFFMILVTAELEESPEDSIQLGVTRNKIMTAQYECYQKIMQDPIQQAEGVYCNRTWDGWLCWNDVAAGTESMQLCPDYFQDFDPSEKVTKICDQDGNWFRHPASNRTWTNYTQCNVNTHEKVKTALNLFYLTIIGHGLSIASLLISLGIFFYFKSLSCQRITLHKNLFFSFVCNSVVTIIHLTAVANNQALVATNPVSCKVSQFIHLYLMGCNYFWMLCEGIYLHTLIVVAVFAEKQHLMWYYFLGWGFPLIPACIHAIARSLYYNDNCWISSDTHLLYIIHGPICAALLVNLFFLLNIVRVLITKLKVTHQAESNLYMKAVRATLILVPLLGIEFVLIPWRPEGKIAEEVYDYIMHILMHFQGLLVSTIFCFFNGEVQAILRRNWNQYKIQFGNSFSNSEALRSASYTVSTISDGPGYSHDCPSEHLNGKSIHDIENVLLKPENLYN
Sequence of Amylin receptor AMY1, CALCR/RAMP1 (O60894 whole entry, one chain of several): as the sequence (O60894 whole entry) above
Sequence of Amylin receptor AMY2; CALCR/RAMP2 (O60895 whole entry, one chain of several): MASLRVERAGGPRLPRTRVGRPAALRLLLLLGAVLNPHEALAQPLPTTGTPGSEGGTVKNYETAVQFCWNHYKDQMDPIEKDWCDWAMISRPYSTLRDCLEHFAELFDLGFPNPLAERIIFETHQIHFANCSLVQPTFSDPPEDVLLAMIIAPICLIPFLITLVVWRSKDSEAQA

SMILES: CC[C@H](C)[C@H](NC(=O)[C@H](C)NC(=O)CNC(=O)[C@H](Cc1ccccc1)NC(=O)[C@H](CC(N)=O)NC(=O)[C@@H]1CCCN1C(=O)[C@H](CO)NC(=O)[C@H](CO)NC(=O)[C@H](Cc1c[nH]cn1)NC(=O)[C@H](CCCNC(=N)N)NC(=O)[C@H](CC(C)C)NC(=O)[C@H](Cc1ccccc1)NC(=O)[C@H](CC(=O)O)NC(=O)[C@H](C)NC(=O)[C@H](CC(C)C)NC(=O)[C@H](CCCNC(=N)N)NC(=O)[C@H](CCC(N)=O)NC(=O)[C@@H](NC(=O)[C@H](C)NC(=O)[C@@H]1CSSC[C@H](NC(=O)[C@@H](N)CCCCN)C(=O)N[C@@H](CC(N)=O)C(=O)N[C@@H]([C@@H](C)O)C(=O)N[C@@H](C)C(=O)N[C@@H]([C@@H](C)O)C(=O)N1)[C@@H](C)O)C(=O)N1CCC[C@H]1C(=O)N[C@@H](CO)C(=O)N[C@@H](CO)C(=O)N[C@H](C(=O)N[C@@H](CC(N)=O)C(=O)N[C@H](C(=O)NCC(=O)N[C@@H](CO)C(=O)N[C@@H](CCCNC(=N)N)C(=O)N[C@H](C(=O)N[C@@H](Cc1ccc(O)cc1)C(N)=O)[C@@H](C)O)C(C)C)[C@@H](C)O
- IC50 (Calcitonin receptor [1]): 42 nM
- Activity (Canis familiaris): inactive
- Activity (Rattus norvegicus [2]): 8.7%
- Activity (Rattus norvegicus [3]): Dose-Dependent Effect
- Activity (Rattus norvegicus [4]): Dose-Dependent Effect
- Activity (Rattus norvegicus [5]): 69.6 g
- IC50 (Calcitonin receptor [6]): 135 nM
- Activity (Rattus norvegicus [7]): 70%
- Activity (Rattus norvegicus [8]): inactive
- Activity (Rattus norvegicus [9]): inactive
- solubility [10]: ≥ 200 µM
- EC50 (Calcitonin receptor [11]): 5.21 nM
- solubility [12]: ≥ 200 µM
- Activity (Rattus norvegicus [13]): Dose-Dependent Effect
- solubility [14]: ≥ 200 µM
- EC50 [15]: 0.262 nM
- EC50 [16]: 0.182 nM
- solubility [17]: 106 µM (≈ 421 µg/mL)
- solubility [18]: 155 µM (≈ 615 µg/mL)
- EC50 [19]: 269 nM
- half-life [20]: ~76 h
- Activity (Rattus norvegicus [21]): 25%
- half-life [22]: ~24 h
- EC50 [23]: 0.0575 nM
- Time [24]: 42 h
